BindingDB's records for doi:10.1016/S0960-894X(00)80679-4 (1993)

Molecular target: Gastrin/cholecystokinin type B receptor (Cavia porcellus)
Assay: In vitro binding affinity against Cholecystokinin type B receptor in guinea pig brain membranes

CCCC[C@H](NC(=O)[C@H](Cc1ccc(OS(=O)(=O)O)cc1)NC(=O)OC(C)(C)C)C(=O)NCC(=O)N[C@H](Cc1c[nH]c2ccccc12)C(=O)N[C@@H](CCCC)C(=O)N[C@@H](CC(=O)O)C(=O)NCCc1ccccc1 [(S)-3-{(S)-2-[(R)-2-(2-{(S)-2-[(S)-2-tert-Butoxycarbonylamino-3-(4-sulfooxy-phenyl)-propionylamino]-hexanoylamino}-acetylamino)-3-(1H-indol-3-yl)-propionylamino]-hexanoylamino}-N-phenethyl-succinamic acid]
IC50: 1000 nM
